These results are taken from patent US20120143074A1, “METHOD OF EVALUATING SUITABILITY FOR DRUG THERAPY FOR THE PREVENTION AND TREATMENT OF ANXIETY DISORDERS USING CHOLINERGIC TYPE II THETA RHYTHM” (priority 2009, published 2012).

The subject of assay [1] is hippocampus acetylcholine concentration. The note with it: 0.5 mg/kg of rivastigmine; microdialysis; cited from earlier work.
In assay [2] the test system is PLC-β4^−/− mice. Description: Three anxiety behavioral assays after rivastigmine (overall). The note with it: 0.5 mg/kg i.p., 60 min after injection. The class given is in vivo. As for the experimental part: (§1) rivastigmine (Novartis Pharma, Basel, Switzerland), which is a cholinergic enhancer, was dissolved in saline. Animals were injected intraperitoneally (i.p.) with 0.5 mg/kg rivastigmine 60 min before the start of anxiety behavioral test (total volume, 5 ml/kg). […] Both PLC-β4^+/+(WT) and PLC-β4^−/−(KO) mice were randomly assigned to one of the following treatment groups: (1) WT-sham (wild-type mice with intraperitoneal injection of saline; n=10), (2) KO-sham (PLC-β4^−/− mice with intraperitoneal injection of saline; n=10), and (3) KO-rivastigmine (PLC-β4^−/− mice with intraperitoneal injection of rivastigmine; n=10). rivastigmine is a second-generation carbamate-based reversible non-competitive AChE and butyrylChE (BuChE) inhibitor. The reason for choosing the inhibitor is that an inhibitory effect sustains for a long period of time, the inhibitor is specific to the brain (Enz, A. et al., Prog. Brain Res. 98, 431-438, 1993), and the inhibitor selectively increases cholin activity in hippocampus and cortex (Weinstock, M., et al., J. Neural Transm. Suppl. 43, 219-225, 1994).
(§2) Whether rivastigmine administration could also rescue the increased anxiety phenotype of PLC-β4^−/− mice was investigated. To this end, rivastigmine (0.5 mg/kg, i.p.) was injected into PLC-β4^−/− mice and, 60 min after injection, the rivastigmine treated group was subjected to three anxiety behavioral assays.

For assay [3], the system named is PLC-β4^−/− mice. Nature of the assay: Light/dark transition test after rivastigmine. The conditions noted are these: 0.5 mg/kg i.p., 60 min before test. The class given is in vivo. The text has this: The apparatus used for the light/dark transition test consisted of a cage (25×40×20 cm) divided into two compartments by a black partition containing a small opening that allows the mouse to move from one compartment to the other. One compartment, comprising two-thirds of the surface area, was made of white plastic and was brightly illuminated; the adjoining smaller compartment was black and dark. Mice were placed in the dark compartment and allowed to move freely between the two chambers for 5 min. The number of transitions between the two compartments, time spent in each chamber, and latency to the first transition were recorded (Welch, J. M. et al., Nature 448, 894-900, 2007).
(§3) rivastigmine (Novartis Pharma, Basel, Switzerland), which is a cholinergic enhancer, was dissolved in saline. Animals were injected intraperitoneally (i.p.) with 0.5 mg/kg rivastigmine 60 min before the start of anxiety behavioral test (total volume, 5 ml/kg). […]

Assay [4] has as its system PLC-β4^−/− mice. Description: Open-field thigmotaxis test after rivastigmine. In kind it is in vivo. The note with it: 0.5 mg/kg i.p., 60 min before test. The procedure:
Open field thigmotaxis was assessed by placing mice in the center of an open field apparatus (40×40×40 cm) under dim lighting. During a 10 min observation period, locomotor activity, number of central crosses, and time spent in the central sector of the open field were recorded and analyzed by PC-based video behavior assay system (TSE, Bad Homburg, Germany). Thigmotaxis index was defined as a ratio of the number of entries into the central part of a testing arena to the locomotor activity. The thigmotaxis index was calculated for each mouse separately and used to calculate means and SEMs for a given experimental group (Treit, D. & Fundytus, M., Pharmacol. Biochem. Behav. 31, 959-962, 1988; Sienkiewicz-Jarosz, H. et al., J Neural Transm. 107, 1403-1412, 2000).
as §1, §2

Assay [5] has as its system PLC-β4^−/− mice. Description: Elevated plus-maze after rivastigmine. In kind it is in vivo. The conditions noted are these: 0.5 mg/kg i.p., 60 min before test. The procedure:
The elevated plus-maze consists of two open and two enclosed arms of the same size (45^┘ 5 cm) with walls 15 cm high. The arms, constructed of black acrylic, radiate from a central platform (5^┘ 5 cm) to form a plus sign. The entire apparatus was elevated to a height of 30 cm above floor level. Each mouse was placed in the central platform facing one of the open arms. The number of entries into the open and closed arms and the time spent on the open and closed arms were recorded during a 5 min test period (Parks, C. L. et al., Proc. Natl. Acad. Sci. USA 95, 10734-10739; 1998; Ramboz, S. et al., Proc. Natl. Acad. Sci. USA 95, 14476-14481, 1998; Gross, C. et al., Nature 416, 396-400, 2002).
as §3

Assay [6] concerns PLC-β4^−/− mice. Description: Hippocampal EEG theta rhythm in a novel environment after rivastigmine. The class given is in vivo. The conditions noted are these: 0.5 mg/kg i.p. As for the experimental part:
For electrode implantation, the animals were anesthetized with pentobarbital ([…], i.p.) and held in a stereotaxic apparatus with bregma and lambda in the same horizontal plane. Hippocampal EEG recordings were performed using Teflon-coated tungsten electrodes (150 um) implanted in the hippocampal fissure with grounding over the cerebellum (from bregma, 2.0 mm anteroposterior, 1.2 mm mediolateral, and 1.8 mm dorsoventral). The position of the electrodes was verified by light microscopy in Nissl-stained sections according to published protocols. Field potential was amplified (×1,000), bandpass-filtered (bandpass-filtered) (0.1-100 Hz), digitized with 12-bit resolution continuously at 1 kHz sampling, and recorded on a personal computer.
The EEG EEG data were collected in 4 s segments and fast-Fourier transformed (FFT). The data were continuously monitored for movement artifacts, and the recording of each segment was manually verified by the experimenter, blinded to the genotype of the animals. […] To compare the EEG spectral characteristics of hippocampal electrical activities, EEG spectral power in 1 Hz bins was calculated using FFT (Hamming window) of each 4 s epoch. […]
Cholinergic and noncholinergic theta rhythms associated with different behaviors were recorded. […] Non-cholinergic type I theta rhythms were recorded from mice walking in an open chamber or running on a wheel. […]

SMILES strings stand for the structures.

Regarding `CCN(C)C(=O)Oc1cccc([C@H](C)N(C)C)c1` [rivastigmine], the “increase of hippocampus acetylcholine concentration” value in assay [1] is on record as “about 100%”. Moreover, in the assay on PLC-β4^−/− mice [2], the “increased anxiety phenotype in each of the three anxiety tests” value is “showed a reversal of the increased anxiety phenotype”. In the assay with PLC-β4^−/− mice [3], the “time in the light chamber” value is on record as “indistinguishable from that of wild-type mice injected with saline”; the “transitions between light and dark boxes” value is on record as “indistinguishable from that of wild-type mice injected with saline”. For the same molecule, in the assay on PLC-β4^−/− mice [4], the “locomotion in the center of the open field” value is “wild-type levels of locomotion in the center of the open field”, the thigmotaxis index result was “reduced thigmotaxis index to the same levels as those in wild-type mice injected with saline”, the “time spent in the central sector of the open field” value is on record as “levels comparable with those in wild-type mice injected with saline” and the “total locomotion activities in the open field” value is on record as “wild-type levels of total locomotion activities”. The “entries into the open arms” value in the assay with PLC-β4^−/− mice [5] is given as “indistinguishable from wild-type mice injected with saline”. In the assay with PLC-β4^−/− mice [5] (three groups), the “total entries into the closed and open arms” value is “did not differ among the three groups”. For the same molecule, the “amplitude of the cholinergic theta rhythms” value with PLC-β4^−/− mice [6] (alert immobility, novel environment) was “restored to a level similar to that of the wild-type mice injected with saline”. Besides, the “amplitude of non-cholinergic type I theta rhythms” value with PLC-β4^−/− mice [6] (recorded during locomotion (walking) in new open field, vs saline-injected KO and WT mice) is recorded as “not significantly different among the three groups”.
